# Earlier results as cited in patent publication US20060167044A1, “Piperidine derivatives and their use as anti-inflammatory agents” (priority 2004, published 2006).
# Tested on: UUO kidneys
# Conditions: mouse, in vivo
compound,measurement,value
C[C@@H]1CN(Cc2ccc(F)cc2)CCN1C(=O)COc1ccc(Cl)cc1NC(N)=O [BX 471],CD8+/CCR5+ T cells (FACS analysis),comparable reduction
